Columns and labels:
[1] = system: Helicobacter pylori ATCC 43504 strain
Method: Helicobacter pylori (ATCC 43504 strain, purchased from American Type Culture Collection) was cultured with use of a 96-well plate. […] After inoculation of Helicobacter pylori, the plate was introduced in a sealed vessel of 2.5 liter volume, into which Anaero Pack-Helico (made by Mitsubishi Gas Chemical), an agent for absorbing oxygen and generating carbon dioxide gas, was also introduced, and cultured for 5 days under an anaerobic condition at 37° C.
Growth of Helicobacter pylori was determined by means of a 96-well plate reader with use of a 540 nm or 595 nm filter. Herein, as a control for absorbance determination, a medium without EDTA was used.

[2] = FAO/WHO Codex Alimentarius Commission, 1973; cited from earlier work

Row | SMILES | concentration at which growth of Helicobacter pylori is inhibited ([1]; ATCC 43504 strain, medium pH 8.0, cultured 5 days at 37° C under anaerobic condition, turbidity at 540 nm or 595 nm against control medium, from FIG. 1 / FIG. 2) [mM] | amount to be taken to inhibit growth of Helicobacter pylori ([1]; calculated for a human stomach volume of about 1.5 L, amount of the salt) [mg] | amount to be taken to inhibit growth of Helicobacter pylori, as free EDTA ([1]; calculated for a human stomach volume of about 1.5 L, expressed as free EDTA) [mg] | growth-inhibiting concentration converted into ([1]; conversion of 0.025-1 mM using molecular weight 372Da) [mg/L] | acceptable daily intake (ADI) as a food additive [2]
1 | O=C([O-])CN(CCN(CC(=O)O)CC(=O)O)CC(=O)[O-].[Na+].[Na+] [disodium ethylenediaminetetraacetate] | 0.025 to 1 | 14 to 558 | 11 to 438 | 9.3 to 372 | 
2 | O=C(O)CN(CCN(CC(=O)O)CC(=O)O)CC(=O)O [EDTA, Ethylenediaminetetraacetic acid] |  |  |  |  | 2.5 mg/kg of weight
